{"source": "ChEMBL document CHEMBL1153934", "about": "“Quantitative structure-activity relationship (QSAR) for a series of novel cannabinoid derivatives using descriptors derived from semi-empirical quantum-chemical calculations” (Bioorg Med Chem, 2009)", "key": {"[1]": {"biological_target": "Cannabinoid receptor 1 (Homo sapiens, UniProt P21554)", "sequence (P21554 whole entry)": "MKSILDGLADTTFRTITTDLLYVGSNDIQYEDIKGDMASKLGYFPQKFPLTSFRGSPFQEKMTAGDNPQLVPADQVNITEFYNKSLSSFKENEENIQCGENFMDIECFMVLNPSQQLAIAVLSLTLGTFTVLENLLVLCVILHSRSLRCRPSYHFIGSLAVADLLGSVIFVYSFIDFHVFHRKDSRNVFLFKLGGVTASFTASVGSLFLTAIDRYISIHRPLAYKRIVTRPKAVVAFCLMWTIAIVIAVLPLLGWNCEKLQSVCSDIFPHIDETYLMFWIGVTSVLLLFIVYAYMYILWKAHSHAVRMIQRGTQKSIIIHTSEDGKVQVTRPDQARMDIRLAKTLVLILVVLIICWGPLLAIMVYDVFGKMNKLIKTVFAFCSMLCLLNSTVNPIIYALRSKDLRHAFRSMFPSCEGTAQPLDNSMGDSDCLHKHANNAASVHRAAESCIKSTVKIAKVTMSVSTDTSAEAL", "test": "Binding affinity to CB1 receptor"}, "[2]": {"biological_target": "Cannabinoid receptor 2 (Homo sapiens, UniProt P34972)", "sequence (P34972 whole entry)": "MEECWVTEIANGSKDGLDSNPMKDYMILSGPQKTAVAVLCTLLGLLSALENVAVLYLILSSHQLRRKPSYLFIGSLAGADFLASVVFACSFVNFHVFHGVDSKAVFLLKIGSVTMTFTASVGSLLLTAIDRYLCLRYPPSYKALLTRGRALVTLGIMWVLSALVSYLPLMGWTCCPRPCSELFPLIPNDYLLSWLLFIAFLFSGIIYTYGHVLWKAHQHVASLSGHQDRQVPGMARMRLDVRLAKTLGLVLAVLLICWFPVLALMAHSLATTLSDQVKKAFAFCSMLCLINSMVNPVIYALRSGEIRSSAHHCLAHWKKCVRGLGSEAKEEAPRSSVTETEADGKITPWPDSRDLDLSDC", "test": "Binding affinity to CB2 receptor"}}, "data": [{"molecule": "CC1=CC[C@@H]2[C@@H](C1)c1c(O)cc(C3C4CC5CC(C4)CC3C5)cc1OC2(C)C", "note": "(stereo not given in full)", "values": [{"measurement": "Ki", "setting": "[1]", "value": 34.9, "unit": "nM"}, {"measurement": "Ki", "setting": "[2]", "value": 14, "unit": "nM"}]}, {"molecule": "CC1=CC[C@@H]2[C@@H](C1)c1c(O)cc(CC3C4CC5CC(C4)CC3C5)cc1OC2(C)C", "note": "(stereo not given in full)", "values": [{"measurement": "Ki", "setting": "[1]", "value": 79.7, "unit": "nM"}, {"measurement": "Ki", "setting": "[2]", "value": 76, "unit": "nM"}]}, {"molecule": "CC(=O)Nc1cccc(C(C)(C)c2cc(O)c3c(c2)OC(C)(C)[C@@H]2CC=C(C)C[C@@H]32)c1", "values": [{"measurement": "Ki", "setting": "[1]", "value": 13.7, "unit": "nM"}, {"measurement": "Ki", "setting": "[2]", "value": 13.6, "unit": "nM"}]}, {"molecule": "CC1=CC[C@@H]2[C@@H](C1)c1c(O)cc(CC34CC5CC(CC(C5)C3)C4)cc1OC2(C)C", "values": [{"measurement": "Ki", "setting": "[1]", "value": 29.3, "unit": "nM"}, {"measurement": "Ki", "setting": "[2]", "value": 26.9, "unit": "nM"}]}, {"molecule": "CC1=CC[C@@H]2[C@@H](C1)c1c(O)cc(C=C3C4CC5CC(C4)CC3C5)cc1OC2(C)C", "values": [{"measurement": "Ki", "setting": "[1]", "value": 48.6, "unit": "nM"}, {"measurement": "Ki", "setting": "[2]", "value": 8.9, "unit": "nM"}]}]}
